Values of other authors as cited in patent US20130012613A1, “METHOD FOR SYNTHESIZING CALIXARENE AND/OR CYCLODEXTRIN COPOLYMERS, TERPOLYMERS AND TETRAPOLYMERS, AND USES THEREOF” (Drug Research Technology Transfer LLC, priority 2009, published 2013).
In brackets after ≈: the same amount, converted by molar mass.

Conditions: native cyclodextrins

solubility in water [mg/mL]	Structure (SMILES)
18.8 (≈ 16.6 mM)	OC[C@H]1O[C@@H]2O[C@H]3[C@H](O)[C@@H](O)[C@@H](O[C@H]4[C@H](O)[C@@H](O)[C@@H](O[C@H]5[C@H](O)[C@@H](O)[C@@H](O[C@H]6[C@H](O)[C@@H](O)[C@@H](O[C@H]7[C@H](O)[C@@H](O)[C@@H](O[C@H]8[C@H](O)[C@@H](O)[C@@H](O[C@H]1[C@H](O)[C@H]2O)O[C@@H]8CO)O[C@@H]7CO)O[C@@H]6CO)O[C@@H]5CO)O[C@@H]4CO)O[C@@H]3CO [beta-CD, beta-cyclodextrin]
236 (≈ 182 mM)	OC[C@H]1O[C@@H]2O[C@H]3[C@H](O)[C@@H](O)[C@@H](O[C@H]4[C@H](O)[C@@H](O)[C@@H](O[C@H]5[C@H](O)[C@@H](O)[C@@H](O[C@H]6[C@H](O)[C@@H](O)[C@@H](O[C@H]7[C@H](O)[C@@H](O)[C@@H](O[C@H]8[C@H](O)[C@@H](O)[C@@H](O[C@H]9[C@H](O)[C@@H](O)[C@@H](O[C@H]1[C@H](O)[C@H]2O)O[C@@H]9CO)O[C@@H]8CO)O[C@@H]7CO)O[C@@H]6CO)O[C@@H]5CO)O[C@@H]4CO)O[C@@H]3CO [gamma-CD, gamma-cyclodextrin]
127 (≈ 131 mM)	OC[C@H]1O[C@@H]2O[C@H]3[C@H](O)[C@@H](O)[C@@H](O[C@H]4[C@H](O)[C@@H](O)[C@@H](O[C@H]5[C@H](O)[C@@H](O)[C@@H](O[C@H]6[C@H](O)[C@@H](O)[C@@H](O[C@H]7[C@H](O)[C@@H](O)[C@@H](O[C@H]1[C@H](O)[C@H]2O)O[C@@H]7CO)O[C@@H]6CO)O[C@@H]5CO)O[C@@H]4CO)O[C@@H]3CO [alpha-CD, alpha-cyclodextrin]
